According to US11225479B2, “Bicyclic inhibitors of histone deacetylase” (Alkermes, Inc., priority 2017, dated 2022):
Where “and” joins values, the source holds several entries; their conditions need not be identical. Equal values may be shown once.

Experiments:
[1] = system: human erythroid progenitors (CFU-E, BFU-E); experiment: Erythroid CFU assay; format: cell-based; settings: for activity at 10 µM: Bone marrow cell, 336 h, 14 days culture, human bone marrow cells, read-out: Erythroid % control @ 10 uM dose
Experimental: (§1) Compounds were tested to evaluate the potential effects on human erythroid and myeloid progenitors using colony forming cell assays. Clonogenic progenitors of human erythroid (CFU-E, BFU-E), granulocyte-monocyte (CFU-GM) and multipotential (CFU-GEMM) lineages were assessed in a semi-solid methylcellulose-based media formulation containing rhIL-3 (10 ng/mL), rhGM-SCF (10 ng/mL), rhSCF (50 ng/mL) and Epo (3 U/mL).
(§2) Normal human bone marrow light density cells derived from normal bone marrow (NorCal Biologics, California), were stored in the gaseous phase of liquid nitrogen (−152° C.) until required for the assay. On the day of the experiment, the cells were thawed rapidly, the contents of each vial was diluted in 10 mL of Iscove's modified Dulbecco's medium containing 10% fetal bovine serum (IMDM+10% FBS) and washed by centrifugation (approximately 1200 r.p.m. for 10 minutes, room temperature). The supernatant was discarded and the cell pellets resuspended in a known volume of IMDM+10% FBS. A cell count (3% glacial acetic acid) and viability assessment (trypan blue exclusion test) was performed for the bone marrow sample.
(§3) On the day of the experiment, the compounds were dissolved in DMSO to a stock concentration of 10 mM. Serial dilutions were prepared from the stock concentration to achieve concentrations of 2 and 0.4 mM. When added to the methylcellulose-based media at 1:1000 (v/v), the final test concentrations of 10, 2 and 0.4 μM were achieved. Additionally, 5-FU was evaluated at 1.0, 0.1 and 0.01 μg/mL.
(§4) Clonogenic progenitors of the human erythroid (CFU-E and BFU-E) and myeloid (CFU-GM) lineages were set up in the methylcellulose-based media formulations described above. All compounds were added to the medium to give the final desired concentrations (10, 2 and 0.4 μM). 5-Fluorouracil (Sigma Aldrich) was used as a positive control for progenitor proliferation (inhibition of colony growth) and was introduced to the human bone marrow cultures at 1.0, 0.1, and 0.01 μg/mL. Solvent control cultures (containing no compound but 0.1% DMSO) as well as standard controls (containing no compound and no DMSO) were also initiated.
(§5) Human myeloid and erythroid progenitor assays were initiated at 2.0×10^4 cells per culture. Following 14 days in culture, myeloid and erythroid colonies were assessed microscopically and scored by trained personnel. The colonies were divided into the following categories based on size and morphology: CFU-E, BFU-E, CFU-GM and CFU-GEMM.
(§6) The mean±one standard deviation of three replicate cultures was calculated for progenitors of each category (CFU-E, BFU-E, etc.). Two-tailed t-tests were performed to assess if there was a difference in the number of colonies generated between solvent control and treated cultures. Due to the potential subjectivity of colony enumeration, a p value of less than 0.01 is deemed significant. To calculate the concentration of 50% inhibition of colony growth (IC50) for each compound, a dose response curve was generated plotting the log of the compound concentration versus the percentage of control colony growth using XLfit software (IDBS). The concentration of 50% inhibition of colony growth (IC50) was calculated based on the sigmoid curve fit using Dose-Response, One-Site Model formula: y=A+[(B−A)/(1+((C/x)^D))], where A=the initial value (baseline response), B=maximum response, C=center (drug concentration that provokes a response halfway between A and B) and D=slope of the curve at midpoint. Further, plots and additional dose response curves were generated using GraphPad Prism 7.0.
(§7) Erythroid (CFU-E and BFU-E), myeloid (CFU-GM) and multi-potential (CFU-GEMM) colony enumeration was performed by trained personnel. The distribution of colony types as well as general colony and cellular morphology was analyzed. For statistical analysis colony numbers in compound treated cultures were compared to the solvent control cultures. […]

[2] = system: human myeloid progenitors (CFU-GM); experiment: Myeloid CFU assay; format: cell-based; settings: 336 h, 14 days culture, human bone marrow cells, read-out: Myeloid % control @ 10 uM dose
Experimental: as §1, §2, §3, §4, §5, §6, §7

[3] = Brain and plasma exposure following IV and PO administration to mice; format: in vivo; settings: for Brain Cmax @ 10 mpk / Projected free brain @ 10 mpk: 10 mg/kg PO; for brain Cmax exposure, fold higher than comparator 1 / projected free brain concentration, fold higher than comparator 1: comparator 1 data scaled for comparison
Experimental: Compounds were dosed in mice at either 10 mg/kg or 30 mg/kg PO, and were dosed at 1 mg/kg IV. Three animals for collection at each time point for plasma via bleeding at 0.25, 0.5, 1, 4, 12 and 24 h. Terminal bleeding for plasma and sampling for brain at 0.25, 0.5, 1, 4, 12 and 24 h (also three animals per brain exposure time point group). Total of six time points for plasma and six time points for brain.
Plasma: The animal was restrained manually at the designated time points, approximately 150 μL blood/time point was collected into K2EDTA tube via retro orbital puncture or cardiac puncture under anesthesia with Isoflurane. The blood sample was centrifuged (2000 g, 4° C., 5 min) to generate plasma within 30 min after bleeding.
Brain: At the designated time points, a mid-line incision was made in the animals scalp and the skin was retracted. Using small bone cutters and rongeurs, removed the skull overlying the brain. Removed the brain using a spatula and rinse with cold saline. Placed the brain in screw-top tubes, and then stored the tubes under −70° C. until analysis.

| SMILES | Brain Cmax @ 10 mpk [3] | activity at 10 µM [1] | activity at 10 µM [2] | other results |
| --- | --- | --- | --- | --- |
| Nc1ccc(-c2ccc(F)cc2)nc1NC(=O)N1Cc2cncnc2C1 [Comparator 1, reference compound] |  | 47.1% | 83.9% | Brain Cmax @ 10 mpk (*scaled for comparison) ([3]; dosed 30 mg/kg PO, scaled to 10 mg/kg PO): 158* ng/g |
| Cn1cc2c(n1)CN(C(=O)Nc1nc(-c3ccc(F)cc3)ccc1N)C2 [Comparator 2, reference compound] |  | 15.7% | 30.4% |  |
| Cc1cc2c(cn1)CN(C(=O)Nc1nc(-c3ccc(F)cc3)ccc1N)C2 [Comparator 3, reference compound] |  | 25.7% | 66.1% |  |
| COCc1cc2c(cn1)CN(C(=O)Nc1nc(-c3ccc(F)cc3)ccc1N)C2 [Comparator 5, reference compound] |  | 22.9% | 58.9% |  |
| COCCn1cc2c(n1)CN(C(=O)Nc1nc(-c3ccc(F)cc3)ccc1N)C2 [Comparator 6, reference compound] |  | 28% | 39% |  |
| Nc1ccc(-c2ccc(F)cc2)nc1NC(=O)N1Cc2cn(C3COC3)nc2C1 [Compound 1] | 636 ng/g | 37% | 54% |  |
| CCc1ncc2c(n1)CN(C(=O)Nc1nc(-c3cccs3)ccc1N)C2 [Compound 3] | 526 ng/g | 46.6% | 89.4% |  |
| O=c1[nH]cc(F)c(=O)[nH]1 [Compound 5-FU, 5-Fluorouracil, reference compound] |  |  |  | inhibitory effects on colony growth (positive control for toxicity) ([1]; 1.0, 0.1 and 0.01 μg/mL, erythroid and myeloid assays): exactly as expected |
| CCc1cc2c(cn1)CN(C(=O)Nc1nc(-c3cccnc3)ccc1N)C2 [Compound 8] | 279 ng/g | 98% | 102% |  |
| Cc1ncc2c(n1)CN(C(=O)Nc1nc(-c3ccc(F)cc3)ccc1N)C2 [Compound 14] | 633 ng/g | 53% | 112% | brain Cmax exposure, fold higher than comparator 1 [3]: 4 fold; projected free brain concentration, fold higher than comparator 1 [3]: 4 fold |
| CCc1ncc2c(n1)CN(C(=O)Nc1nc(-c3ccc(F)cc3)ccc1N)C2 [Compound 17] | 1241 ng/g | 59.6% | 79.1% | brain Cmax exposure, fold higher than comparator 1 [3]: ~7 fold; projected free brain concentration, fold higher than comparator 1 [3]: 5 fold |

Now from value to molecule, other results behind:

| Brain Cmax @ 10 mpk [3] | SMILES | activity at 10 µM [1] | activity at 10 µM [2] | other results |
| --- | --- | --- | --- | --- |
| 100 ng/g | Nc1ccc(-c2cccs2)nc1NC(=O)N1Cc2cncnc2C1 [Comparator 6, reference compound] |  |  | Projected free brain @ 10 mpk [3]: 0.103 µM |
| 760 ng/g | Cc1ncc2c(n1)CN(C(=O)Nc1nc(-c3ccc(F)s3)ccc1N)C2 [Compound 2] | 40% | 87% |  |
| 324 ng/g | Cc1ncc(-c2ccc(N)c(NC(=O)N3Cc4cn(C)nc4C3)n2)s1 [Compound 4] | 53% | 96% |  |
| 277 ng/g | Cc1ncc(-c2ccc(N)c(NC(=O)N3Cc4cn(CC(F)F)nc4C3)n2)s1 [Compound 5] |  |  |  |
| 102 ng/g | Cc1nc2c(n1C)CN(C(=O)Nc1nc(-c3ccc(F)cc3)ccc1N)C2 [Compound 7] |  |  |  |
| 1533 ng/g and 1383 ng/g | COCCn1cc2c(n1)CN(C(=O)Nc1nc(-c3ccc(F)cc3F)ccc1N)C2 [Compound 9] | 40.4% | 62.8% |  |
| 369 ng/g | Cn1cc2c(n1)CN(C(=O)Nc1nc(-c3cccnc3)ccc1N)C2 [Compound 11] | 94% | 103% | Projected free brain @ 10 mpk [3]: 0.664 µM |
| 237 ng/g | Cc1cc2c(cn1)CN(C(=O)Nc1nc(-c3cccnc3)ccc1N)C2 [Compound 12] | 93% | 104% |  |
